Format in all cases: cell-based
One assay deals with H1299 cells. Briefly: Cell viability assay (MTS) in H1299 cells. The conditions noted are these: 72 h, MTS, Figure 2D.
A further assay relates to HEK293T cells. As to the kind of experiment: Cell viability assay (MTS) in HEK293T cells. To be noted: 72 h, Figure 2H. As to the method: (§1) Cell viability assay was conducted using Cell Titer 96® AQueous One Solution Cell proliferation Assay kit (Promega, Madison, WI, USA). Five cancer cells and HaCaT cells were plated in 96-well microplates with growth medium for 24 h. When cell confluency reached ~30%, cells were treated with DMSO (vehicle) and test compounds. The medium and test compounds were replaced every 24 h. To measure cell viability, the cells were incubated with MTS solution for 1 h. The absorbance was measured by using Infinite M200 microplate reader (Tecan, Männedorf, Switzerland) at 490 nm.
Figure 2 Effect of 5r on cell viability in HepG2, Huh7, AGS, H1299, A549, HaCaT, NIH3T3, and HEK293T cells. (A–H) HepG2, Huh7, AGS, H1299, A549, HaCaT, NIH3T3, and HEK293T cells were cultured with 5r at the indicated concentrations for 72 h, and medium was replaced every 24 h with freshly added 5r. Cell viability was measured by MTS analysis (mean ± S.D., n = 5). * p < 0.05, ** p < 0.01, *** p < 0.001.

The subject of the next assay is AGS cells. As to the kind of experiment: Cell viability assay (MTS) in AGS cells. The conditions noted are these: 72 h, MTS, Figure 2C.
The test system of assay [1] is cleaved PARP. Briefly: Western blot analysis of cleaved PARP in HepG2 cells. The conditions noted are these: 24 h, Figure 4E,G. How it is done: (§2) For Western blot analysis, HepG2 and Huh7 cells were lysed with RIPA buffer (50 mM Tris-HCl, PH 7.4, 1% Nonidet P-40, 0.25% sodium deoxycholate, 150 mM NaCl, 1 mM EDTA, 1 mM Na3VO4, and protease inhibitor). Lysed samples were centrifuged at 13,000 RPM for 20 min at 4 °C to remove the cell debris, and equal amounts (60 μg protein/lane) of supernatant protein were divided by 4–12% Tris Glycine Precast Gel (KOMA BIOTECH, Seoul, Korea). Then, PVDF membranes (Millipore, Billerica, MA, USA) were used to transfer the separated proteins. Membrane blocking was performed by Tris-buffered saline with 0.1% Tween 20 (TBST) containing 5% bovine serum albumin (BSA) at room temperature for 50 min. The membranes were incubated with primary antibodies overnight at 4 °C with the indicated primary antibodies: anti-cleaved PARP (BD Biosciences) and anti-β-actin (Santa Cruz Biotechnology, Dallas, TX, USA). […] After 1 h, membranes were detected by using ECL Plus Western blotting detection system (GE Healthcare, Piscataway, NJ, USA).
(§3) Figure 4 Effect of 5r on activity of caspase-3 and cleavage of PARP in HepG2 and Huh7 cells. […] (E,F) Cells were cultured with 5r at the indicated concentrations for 24 h, and expression level of PARP, cleaved-PARP and β-actin were measured by Western blot analysis. […]
In general terms: In western blotting, separated proteins are transferred to a membrane and probed.

The next assay deals with Huh7 cells. Briefly: Combination of 5r with gemcitabine, cell viability (MTS) in Huh7 cells. To be noted: co-treatment with gemcitabine (0.3 μM), 72 h. As to the method:
as §1
Figure 6 Combination effect of 5r and gemcitabine on cell viability in HepG2 and Huh7 cells. (A,B) HepG2 and Huh7 cells were cultured with the indicated concentrations of 5r and gemcitabine (0.3 μM) for 72 h, and medium was replaced every 24 h with freshly added 5r and gemcitabine. Cell viability was determined by MTS analysis (mean ± S.D., n = 5). ** p < 0.01, *** p < 0.001.

For another assay, the system named is A549 cells. As to the kind of experiment: Cell viability assay (MTS) in A549 cells. To be noted: 72 h, MTS, Figure 2E.
Assay [2] relates to cleaved PARP. As to the kind of experiment: Western blot analysis of cleaved PARP in Huh7 cells. To be noted: 24 h, Figure 4F,H. How it is done: as §2, §3

Molecules are shown by their SMILES.

With `N#Cc1c2c3cccn3c(-c3ccccc3O)nc2n2ccccc12` [Compound 5r, 5-(2-Hydroxyphenyl)pyrrolo[1′,2′:1,6]pyrimido[5,4-b]indolizine-12-carbonitrile], the “Effect on cell viability in H1299 cells” value in the assay with H1299 cells is listed as “weak effect”. In addition, the “Effect on cell viability in non-cancerous HEK293T cells” value with HEK293T cells is “weakly decreased cell viability”. Besides, the “Effect on cell viability in AGS cells” value in the assay on AGS cells is recorded as “weak effect”. For the same compound, the “Expression level of cleaved PARP in HepG2 cells” value in the assay with cleaved PARP [1] is given as “increased the expression level of cleaved PARP in a dose-dependent manner”. For the same compound, the “Combination effect with gemcitabine on cell viability in Huh7 cells” value in the assay on Huh7 cells is given as “additional effect rather than a synergistic effect”. In addition, in the assay on A549 cells, the “Effect on cell viability in A549 cells” value was “weak effect”. Further, the “Expression level of cleaved PARP in Huh7 cells” value in the assay on cleaved PARP [2] is given as “increased the expression level of cleaved PARP in a dose-dependent manner”.

The record behind these values is article PMC9694334, “Synthesis and Biological Evaluation of a Fused Structure of Indolizine and Pyrrolo[1,2-c]pyrimidine: Identification of Its Potent Anticancer Activity against Liver Cancer Cells” (Pharmaceuticals, 2022).
